This assay concerns HCV 1b genotype. The assay is described as follows: HCV Replicon assay. Type of assay: cell-based. Particulars: HCV 1b genotype replicon; for pEC50: read-out: Range (EC50 ranges against HCV 1b); for EC50: read-out: 1b (μM) EC50 (Effective 50% inhibitory concentration). The method, then: An HCV Replicon assay was utilized in the present disclosure, and was prepared, conducted and validated as described in commonly owned PCT/US2006/022197 and in O'Boyle et. al. Antimicrob Agents Chemother. 2005 Apr; 49(4):1346-53. Assay methods incorporating luciferase reporters have also been used as described (Apath.com).
HCV-neo replicon cells and replicon cells containing resistance substitutions in the NS5A region were used to test the currently described family of compounds.
In general terms: In antiviral work, replicon cells carry a viral genome segment that copies itself.

For orientation: pEC50 means −log10 of the EC50, conventionally taken in molar units.

Structures are written as SMILES. pEC50: −log10 of the molar value. Like-named read-outs stand apart in the source and are kept apart here.

As to `COC(=O)NC(C(=O)N1[C@@H](C)CC[C@H]1c1nc(-c2ccc(-c3ccc(-c4c[nH]c([C@@H]5CC[C@H](C)N5C(=O)C(NC(=O)OC)C5CCC6(CC6)OC5)n4)cc3)cc2)c[nH]1)C1CCC2(CC2)OC1` (some centres unmarked) [Example 1.1], the pEC50 (Hepatitis C virus) is 10.00 to 11.30.

As to `COC(=O)NC(C(=O)N1[C@@H](C)CC[C@H]1c1nc(-c2ccc(-c3ccc(-c4c[nH]c([C@@H]5CC[C@H](C)N5C(=O)C(NC(=O)OC)C5CCC6(CC6)OC5)n4)cc3)cc2)c[nH]1)C1CCC2(CC2)OC1` (some centres unmarked) [Example 1.2], the pEC50 is 10.00 to 11.30.

As for `COC(=O)NC(C(=O)N1[C@@H]2C[C@@H]2C[C@H]1c1nc(-c2ccc(-c3ccc(-c4c[nH]c([C@@H]5C[C@H]6C[C@H]6N5C(=O)C(NC(=O)OC)[C@@H]5C[C@@H]6[C@H](C5)C6(F)F)n4)cc3)cc2)c[nH]1)[C@@H]1C[C@@H]2[C@H](C1)C2(F)F` (single isomer, unassigned) [QC1.3], the pEC50 (Hepatitis C virus) is 9.05 to 10.00.

As to `COC(=O)NC(C(=O)N1[C@@H](C)CC[C@H]1c1ncc(-c2ccc(-c3ccc(-c4cnc([C@@H]5CC[C@H](C)N5C(=O)C(NC(=O)OC)C5CCOC6(CCCC6)C5)[nH]4)cc3)cc2)[nH]1)C1CCOC2(CCCC2)C1` (single isomer, unassigned) [Example 3.1], the pEC50 was 6.85 to 9.05.

Take `COC(=O)NC(C(=O)N1[C@@H]2C[C@@H]2C[C@H]1c1nc(-c2ccc(-c3ccc(-c4c[nH]c([C@@H]5C[C@H]6C[C@H]6N5C(=O)C(NC(=O)OC)[C@H]5C[C@@H]6[C@H](C5)C6(F)F)n4)cc3)cc2)c[nH]1)[C@H]1C[C@@H]2[C@H](C1)C2(F)F` (stereo partly drawn) [QC2.3, dimethyl (4,4′-biphenyldiylbis(1H-imidazole-4,2-diyl(1R,3S,5R)-2-azabicyclo[3.1.0]hexane-3,2-diyl(1-((1R,3r,5S)-6,6-difluorobicyclo[3.1.0]hex-3-yl)-2-oxo-2,1-ethanediyl)))biscarbamate]: the EC50 was found to be 1.08 nM and the pEC50 is 6.85 to 9.05.

For `COC(=O)NC(C(=O)N1[C@@H]2C[C@@H]2C[C@H]1c1nc(-c2ccc(-c3ccc(-c4c[nH]c([C@@H]5C[C@H]6C[C@H]6N5C(=O)C(NC(=O)OC)[C@@H]5C[C@@H]6[C@H](C5)C6(F)F)n4)cc3)cc2)c[nH]1)[C@@H]1C[C@@H]2[C@H](C1)C2(F)F` (single isomer, unassigned) [QC1.2], for the setting “Hepatitis C virus”, the EC50 was 0.0049 nM.

Consider `COC(=O)N[C@@H](C(=O)N1C2C[C@@H]2C[C@H]1c1nc(-c2ccc(-c3ccc(-c4c[nH]c([C@@H]5C[C@H]6CC6N5C(=O)[C@H](NC(=O)OC)C5[C@H]6COC[C@@H]56)n4)cc3)cc2)c[nH]1)C1[C@H]2COC[C@@H]12` (stereo partly drawn) [QC4.1, dimethyl (4,4′-biphenyldiylbis(1H-imidazole-4,2-diyl(1R,3S,5R)-2-azabicyclo[3.1.0]hexane-3,2-diyl(1-((1R,5S,6s)-3-oxabicyclo[3.1.0]hex-6-yl)-2-oxo-2,1-ethanediyl)))biscarbamate], for which the pEC50 is 10.00 to 11.30.

As to `COC(=O)NC(C(=O)N1[C@@H](C)CC[C@H]1c1ncc(-c2ccc(-c3ccc(-c4cnc([C@@H]5CC[C@H](C)N5C(=O)C(NC(=O)OC)C5CCOC6(CCC6)C5)[nH]4)cc3)cc2)[nH]1)C1CCOC2(CCC2)C1` (single isomer, unassigned) [Example 2.1], the pEC50 is 6.85 to 9.05.

Take `COC(=O)NC(C(=O)N1[C@@H](C)CC[C@H]1c1ncc(-c2ccc(-c3ccc(-c4cnc([C@@H]5CC[C@H](C)N5C(=O)C(NC(=O)OC)C5CCOC6(CCCC6)C5)[nH]4)cc3)cc2)[nH]1)C1CCOC2(CCCC2)C1` (single isomer, unassigned) [Example 3.2]: the pEC50 is 6.85 to 9.05.

On to `COC(=O)NC(C(=O)N1[C@@H]2C[C@@H]2C[C@H]1c1nc(-c2ccc(-c3ccc(-c4c[nH]c([C@@H]5C[C@H]6C[C@H]6N5C(=O)C(NC(=O)OC)[C@H]5C[C@@H]6C[C@@H]6C5)n4)cc3)cc2)c[nH]1)[C@H]1C[C@@H]2C[C@@H]2C1` (single isomer, unassigned) [QC5.3], for which, where the note is “Hepatitis C virus”, the EC50 was found to be 0.00555 nM and the pEC50 is 10.00 to 11.30.

Consider `COC(=O)NC(C(=O)N1CCC[C@H]1c1nc(-c2ccc(-c3c[nH]c([C@@H]4CCCN4C(=O)C(NC(=O)OC)C4CCOC5(CC5)C4)n3)cc2)c[nH]1)C1CCOC2(CC2)C1` (stereo partly drawn) [Example QC14, dimethyl (benzene-1,4-diylbis(1H-imidazole-4,2-diyl(2S)pyrrolidine-2,1-diyl(1-(4-oxaspiro[2.5]oct-7-yl)-2-oxoethane-2,1-diyl)))biscarbamate], for which the pEC50 (Hepatitis C virus) is 6.85 to 9.05.

Consider `COC(=O)NC(C(=O)N1[C@@H](C)CC[C@H]1c1ncc(-c2ccc(-c3ccc(-c4cnc([C@@H]5CC[C@H](C)N5C(=O)C(NC(=O)OC)C5CCOC6(CCC6)C5)[nH]4)cc3)cc2)[nH]1)C1CCOC2(CCC2)C1` (single isomer, unassigned) [Example 2.2], for which the pEC50 is 6.85 to 9.05.

Turning to `COC(=O)N[C@H](C(=O)C1[C@@H](CF)CC[C@H]1c1ncc(-c2ccc(-c3ccc(-c4cnc([C@@H]5CC[C@H](CF)N5C(=O)[C@@H](NC(=O)OC)[C@H]5CCOC6(CC6)C5)[nH]4)cc3)cc2)[nH]1)[C@H]1CCOC2(CC2)C1` (some centres unmarked) [Example 8], the pEC50 (Hepatitis C virus) is 10.00 to 11.30.

On to `COC(=O)NC(C(=O)N1[C@@H]2C[C@@H]2C[C@H]1c1nc(-c2ccc(-c3ccc(-c4c[nH]c([C@@H]5C[C@H]6C[C@H]6N5C(=O)C(NC(=O)OC)[C@@H]5C[C@@H]6C[C@@H]6C5)n4)cc3)cc2)c[nH]1)[C@@H]1C[C@@H]2C[C@@H]2C1` (stereo partly drawn) [QC3.3, dimethyl (4,4′-biphenyldiylbis(1H-imidazole-4,2-diyl(1R,3S,5R)-2-azabicyclo[3.1.0]hexane-3,2-diyl(1-((1R,3r,5S)-bicyclo[3.1.0]hex-3-yl)-2-oxo-2,1-ethanediyl)))biscarbamate], for which the pEC50 is 9.05 to 10.00.

For the compound `COC(=O)NC(C(=O)N1[C@@H]2C[C@@H]2C[C@H]1c1nc(-c2ccc(-c3ccc(-c4c[nH]c([C@@H]5C[C@H]6C[C@H]6N5C(=O)C(NC(=O)OC)[C@H]5C[C@@H]6[C@H](C5)C6(F)F)n4)cc3)cc2)c[nH]1)[C@H]1C[C@@H]2[C@H](C1)C2(F)F` (stereo partly drawn) [QC2.2, dimethyl (4,4′-biphenyldiylbis(1H-imidazole-4,2-diyl(1R,3S,5R)-2-azabicyclo[3.1.0]hexane-3,2-diyl(1-((1R,3r,5S)-6,6-difluorobicyclo[3.1.0]hex-3-yl)-2-oxo-2,1-ethanediyl)))biscarbamate], the pEC50 was 10.00 to 11.30.

For the compound `COC(=O)NC(C(=O)N1[C@@H]2C[C@@H]2C[C@H]1c1nc(-c2ccc(-c3ccc(-c4c[nH]c([C@@H]5C[C@H]6C[C@H]6N5C(=O)C(NC(=O)OC)[C@@H]5C[C@@H]6C[C@@H]6C5)n4)cc3)cc2)c[nH]1)[C@@H]1C[C@@H]2C[C@@H]2C1` (stereo partly drawn) [QC3.2, dimethyl (4,4′-biphenyldiylbis(1H-imidazole-4,2-diyl(1R,3S,5R)-2-azabicyclo[3.1.0]hexane-3,2-diyl(1-((1R,3r,5S)-bicyclo[3.1.0]hex-3-yl)-2-oxo-2,1-ethanediyl)))biscarbamate], the pEC50 was 10.00 to 11.30.

For `COC(=O)N[C@@H](C(=O)N1C2C[C@@H]2C[C@H]1c1nc(-c2ccc(-c3ccc(-c4c[nH]c([C@@H]5C[C@H]6CC6N5C(=O)[C@H](NC(=O)OC)C5[C@H]6COC[C@@H]56)n4)cc3)cc2)c[nH]1)C1[C@H]2COC[C@@H]12` (stereo partly drawn) [QC4.2, dimethyl (4,4′-biphenyldiylbis(1H-imidazole-4,2-diyl(1R,3S,5R)-2-azabicyclo[3.1.0]hexane-3,2-diyl(1-((1R,5S,6s)-3-oxabicyclo[3.1.0]hex-6-yl)-2-oxo-2,1-ethanediyl)))biscarbamate], the pEC50 is 9.05 to 10.00.

As to `COC(=O)NC(C(=O)N1[C@@H](C)CC[C@H]1c1ncc(-c2ccc(-c3ccc(-c4cnc([C@@H]5CC[C@H](C)N5C(=O)C(NC(=O)OC)C5CC6(CC6)C5)[nH]4)cc3)cc2)[nH]1)C1CC2(CC2)C1` (some centres unmarked) [Example 5.2], the pEC50 (Hepatitis C virus) is 6.85 to 9.05.

(Values after patent publication US9546160B2, “Hepatitis C virus inhibitors” (Bristol-Myers Squibb Company, priority 2011, dated 2017).)
